What was measured:
Format in all cases: biochemical
Pim2 kinase = Pim2 kinase (Homo sapiens (Human), UniProt Q9P1W9); experiment: Pim2 ATP depletion assay; details: 4 μM ATP, 10 μM BAD peptide, 5 nM PIM2
Procedure: (§1) The activity of PIM2 is measured using a luciferase-luciferin based ATP detection reagent to quantify ATP depletion resulting from kinase-catalyzed phosphoryl transfer to a peptide substrate. Compounds to be tested are dissolved in 100% DMSO and directly distributed into white 384-well plates at 0.5 piper well. […] After 15 minutes, 10 μl of 8 μM ATP in assay buffer is added. Final assay concentrations are 5 nM PIM2, 4 μM ATP, 10 μM BAD peptide and 2.5% DMSO. The reaction is performed until approximately 50% of the ATP is depleted, then stopped with the addition of 20 μl KinaseGlo Plus (Promega Corporation) solution. The stopped reaction is incubated for 10 minutes and the remaining ATP detected via luminescence on the Victor2 (Perkin Elmer).

Pim3 kinase = Pim3 kinase (Homo sapiens (Human), UniProt Q86V86); experiment: Pim3 ATP depletion assay; details: 40 μM ATP, 100 μM BAD peptide
Procedure: as §1, with “of PIM3” for “of PIM2”, “of 80” for “of 8”, “nM PIM1, 40” for “nM PIM2, 4”, “ATP, 100” for “ATP, 10”, “stopped by” for “stopped with”

Pim1 kinase = Pim1 kinase (Homo sapiens (Human), UniProt P11309); experiment: Pim1 ATP depletion assay; details: 20 μM ATP, 40 μM BAD peptide, 2.5 nM PIM1
Procedure: as §1, with “of PIM1” for “of PIM2”, “0.5 μl per” for “0.5 piper”, “of 40” for “of 8”, “are 2.5” for “are 5”, “nM PIM1, 20” for “nM PIM2, 4”, “ATP, 40” for “ATP, 10”

Sequence of Pim1 kinase (P11309 whole entry): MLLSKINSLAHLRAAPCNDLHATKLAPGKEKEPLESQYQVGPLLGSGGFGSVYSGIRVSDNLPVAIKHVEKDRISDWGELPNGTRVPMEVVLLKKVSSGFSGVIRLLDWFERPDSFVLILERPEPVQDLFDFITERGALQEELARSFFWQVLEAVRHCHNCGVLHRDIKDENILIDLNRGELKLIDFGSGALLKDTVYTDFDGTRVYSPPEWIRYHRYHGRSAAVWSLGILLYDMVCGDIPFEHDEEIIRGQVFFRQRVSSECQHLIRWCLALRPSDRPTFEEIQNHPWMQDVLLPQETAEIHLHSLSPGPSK
Sequence of Pim2 kinase (Q9P1W9 whole entry): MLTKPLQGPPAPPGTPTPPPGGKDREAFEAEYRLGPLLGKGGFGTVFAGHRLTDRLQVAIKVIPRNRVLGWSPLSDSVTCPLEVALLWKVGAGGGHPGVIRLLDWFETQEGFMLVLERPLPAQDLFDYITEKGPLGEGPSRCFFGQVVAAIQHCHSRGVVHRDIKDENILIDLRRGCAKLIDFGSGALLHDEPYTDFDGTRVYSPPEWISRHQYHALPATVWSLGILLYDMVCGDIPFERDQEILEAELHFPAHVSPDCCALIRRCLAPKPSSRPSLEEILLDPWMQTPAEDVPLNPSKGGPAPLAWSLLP

## C[C@H]1C[C@@H](c2ccncc2NC(=O)c2csc(-c3c(F)cccc3F)n2)C[C@@H](N)[C@H]1F (racemic) [Example 58, N-(4-((+/−)-3-amino-4-fluoro-5-methylcyclohexyl)pyridin-3-yl)-2-(2,6-difluorophenyl)thiazole-4-carboxamide]
Pim2 kinase
  IC50: 47 nM
Pim3 kinase
  IC50: 18 nM

## COc1ccc(F)c(-c2nc(C(=O)Nc3cnccc3[C@@H]3C[C@H](C)C[C@H](N)C3)cs2)c1F (stereo in doubt) [Example 52, 2-(2,6-Difluoro-3-methoxy-phenyl)-thiazole-4-carboxylic acid [4-(3-amino-5-methyl-cyclohexyl)-pyridin-3-yl]-amide]
Pim1 kinase
  IC50: 1 nM
Pim2 kinase
  IC50: 4 nM
Pim3 kinase
  IC50: 2 nM

## CCOc1ccc(F)c(-c2nc(C(=O)Nc3cnccc3[C@@H]3C[C@H](C)C[C@H](N)C3)cs2)c1F (stereo in doubt) [Example 54, 2-(3-Ethoxy-2,6-difluoro-phenyl)-thiazole-4-carboxylic acid [4-(3-amino-5-methyl-cyclohexyl)-pyridin-3-yl]-amide]
Pim1 kinase
  IC50: 1 nM
Pim2 kinase
  IC50: 9 nM
Pim3 kinase
  IC50: 3 nM

## C[C@@H]1C[C@H](N)C[C@H](c2ccncc2NC(=O)c2csc(-c3c(F)ccc(F)c3F)n2)C1 (stereo in doubt) [Example 55, 2-(2,3,6-Trifluoro-phenyl)-thiazole-4-carboxylic acid [4-(3-amino-5-methyl-cyclohexyl)-pyridin-3-yl]-amide]
Pim1 kinase
  IC50: 3 nM
Pim2 kinase
  IC50: 15 nM
Pim3 kinase
  IC50: 5 nM

## C[C@@H]1C[C@H](N)C[C@H](c2ccncc2NC(=O)c2csc(-c3c(F)ccc(Cl)c3F)n2)C1 (stereo in doubt) [Example 56, 2-(3-Chloro-2,6-difluoro-phenyl)-thiazole-4-carboxylic acid [4-(3-amino-5-methyl-cyclohexyl)-pyridin-3-yl]-amide]
Pim1 kinase
  IC50: 1 nM
Pim2 kinase
  IC50: 12 nM
Pim3 kinase
  IC50: 3 nM

## C[C@@H]1C[C@H](N)C[C@H](c2ccncc2NC(=O)c2csc(-c3c(F)cc(O)cc3F)n2)C1 (stereo in doubt) [Example 57, 2-(2,6-Difluoro-4-hydroxy-phenyl)-thiazole-4-carboxylic acid [4-(3-amino-5-methyl-cyclohexyl)-pyridin-3-yl]-amide]
Pim1 kinase
  IC50: 1 nM
Pim2 kinase
  IC50: 4 nM
Pim3 kinase
  IC50: 2 nM

## N[C@@H]1CN(c2ccncc2NC(=O)c2csc(-c3c(F)cccc3F)n2)CC[C@H]1F [Example 3, N-(4-((3R,4R)-3-amino-4-fluoropiperidin-1-yl)pyridin-3-yl)-2-(2,6-difluorophenyl)thiazole-4-carboxamide]
Pim1 kinase
  IC50: 2 nM
Pim2 kinase
  IC50: 23 nM
Pim3 kinase
  IC50: 5 nM

## N[C@H]1C[C@@H](O)CN(c2ccncc2NC(=O)c2csc(-c3c(F)cccc3F)n2)C1 [Example 5, N-(4-((3S,5R)-3-amino-5-hydroxypiperidin-1-yl)pyridin-3-yl)-2-(2,6-difluorophenyl)thiazole-4-carboxamide]
Pim1 kinase
  IC50: 15 nM
Pim2 kinase
  IC50: 77 nM
Pim3 kinase
  IC50: 13 nM

## COC1CCN(c2ccncc2NC(=O)c2csc(-c3c(F)cccc3F)n2)CC1N (centres unmarked) [Example 7, N-(4-(3-amino-4-methoxypiperidin-1-yl)pyridin-3-yl)-2-(2,6-difluorophenyl)thiazole-4-carboxamide]
Pim1 kinase
  IC50: 5 nM
Pim2 kinase
  IC50: 243 nM
Pim3 kinase
  IC50: 18 nM

## N[C@H]1C[C@H](O)CN(c2ccncc2NC(=O)c2csc(-c3c(F)cccc3F)n2)C1 [Example 9, N-(4-((3S,5S)-3-amino-5-hyydroxypiperidin-1-yl)pyridin-3-yl)-2-(2,6-difluorophenyl)thiazole-4-carboxamide]
Pim1 kinase
  IC50: 69 nM
Pim2 kinase
  IC50: 1500 nM
Pim3 kinase
  IC50: 91 nM

## N[C@H]1C[C@H](OC(=O)c2ccccc2)CN(c2ccncc2NC(=O)c2csc(-c3c(F)cccc3F)n2)C1 [Example 10, (3S,5S)-5-amino-1-(3-(2-(2,6-difluorophenyl)thiazole-4-carboxamido)pyridin-4-yl)piperidin-3-yl benzoate]
Pim1 kinase
  IC50: 2220 nM
Pim2 kinase
  IC50: 479 nM
Pim3 kinase
  IC50: 322 nM

## N[C@H]1CCCN(c2ccncc2NC(=O)c2csc(C3CCCCC3)n2)C1 [Example 12, (S)-N-(4-(3-aminopiperidin-1-yl)pyridin-3-yl)-2-cyclohexylthiazole-4-carboxamide]
Pim1 kinase
  IC50: 57 nM
Pim2 kinase
  IC50: 208 nM
Pim3 kinase
  IC50: 45 nM

## NC1CC(CO)CN(c2ccncc2NC(=O)c2csc(-c3c(F)cccc3F)n2)C1 (centres unmarked) [Example 13, N-(4-(3-amino-5-(hydroxymethyl)piperidin-1-yl)pyridin-3-yl)-2-(2,6-difluorophenyl)thiazole-4-carboxamide]
Pim1 kinase
  IC50: 14 nM
Pim2 kinase
  IC50: 58 nM
Pim3 kinase
  IC50: 24 nM

## N[C@H]1C[C@H](F)CN(c2ccncc2NC(=O)c2csc(-c3c(F)cccc3F)n2)C1 [Example 17, N-(4-((3S,5S)-3-amino-5-fluoropiperidin-1-yl)pyridin-3-yl)-2-(2,6-difluorophenyl)thiazole-4-carboxamide]
Pim1 kinase
  IC50: 4 nM
Pim2 kinase
  IC50: 70 nM
Pim3 kinase
  IC50: 8 nM

## NC1CN(c2ccncc2NC(=O)c2csc(-c3c(F)cccc3F)n2)CCC1Cl (centres unmarked) [Example 18, N-(4-(3-amino-4-chloropiperidin-1-yl)pyridin-3-yl)-2-(2,6-difluorophenyl)thiazole-4-carboxamide]
Pim1 kinase
  IC50: 5 nM
Pim2 kinase
  IC50: 54 nM
Pim3 kinase
  IC50: 12 nM

## CC1CC(N)CN(c2ccncc2NC(=O)c2csc(C3CCCCC3)n2)C1 (centres unmarked) [Example 20, N-(4-(3-amino-5-methylpiperidin-1-yl)pyridin-3-yl)-2-cyclohexylthiazole-4-carboxamide]
Pim1 kinase
  IC50: 12 nM
Pim2 kinase
  IC50: 18 nM
Pim3 kinase
  IC50: 16 nM

## NC1CC(C(F)(F)F)CN(c2ccncc2NC(=O)c2csc(C3CCCCC3)n2)C1 (centres unmarked) [Example 21, N-(4-(3-amino-5-(trifluoromethyl)piperidin-1-yl)pyridin-3-yl)-2-cyclohexylthiazole-4-carboxamide]
Pim1 kinase
  IC50: 11 nM
Pim2 kinase
  IC50: 21 nM
Pim3 kinase
  IC50: 20 nM

## CO[C@H]1C[C@H](N)CN(c2ccncc2NC(=O)c2csc(-c3c(F)cccc3F)n2)C1 [Example 22, N-(4-((3S,5S)-3-amino-5-methoxypiperidin-1-yl)pyridin-3-yl)-2-(2,6-difluorophenyl)thiazole-4-carboxamide]
Pim1 kinase
  IC50: 129 nM
Pim2 kinase
  IC50: 378 nM
Pim3 kinase
  IC50: 60 nM

## N[C@@H]1CN(c2ccncc2NC(=O)c2csc(-c3c(F)cccc3F)n2)CC(F)(F)C1 [Example 24, (S)-N-(4-(5-amino-3,3-difluoropiperidin-1-yl)pyridin-3-yl)-2-(2,6-difluoropheenyl)thiazole-4-carboxamide]
Pim1 kinase
  IC50: 2 nM
Pim2 kinase
  IC50: 38 nM
Pim3 kinase
  IC50: 4 nM

## CC[C@@H]1C[C@H](N)CN(c2ccncc2NC(=O)c2csc(-c3c(F)cccc3F)n2)C1 [Example 25, N-(4-((3S,5R)-3-amino-5-ethylpiperidin-1-yl)pyridin-3-yl)-2-(2,6-difluorophenyl)thiazole-4-carboxamide]
Pim1 kinase
  IC50: 1 nM
Pim2 kinase
  IC50: 3 nM
Pim3 kinase
  IC50: 3 nM

## N[C@@H]1C[C@@H](C(F)(F)F)CN(c2ccncc2NC(=O)c2csc(-c3c(F)cccc3F)n2)C1 [Example 26, N-(4-((3R,5R)-3-amino-5-(trifluoromethyl)piperidin-1-yl)pyridin-3-yl)-2-(2,6-difluorophenyl)thiazole-4-carboxamide]
Pim1 kinase
  IC50: 6 nM
Pim2 kinase
  IC50: 72 nM
Pim3 kinase
  IC50: 24 nM

— patent US8829193B2, “PIM kinase inhibitors and methods of their use” (Novartis AG, priority 2008, dated 2014)
